Test results taken from US5807874A, “Trisbenzimidazoles useful as topoisomerase I inhibitors” (Rutgers, The State University of New Jersey, priority 1995, dated 1998).
Entries after “also recorded” stand apart in the source; their conditions may differ.

Columns and labels:
[1] = test system: calf thymus topoisomerase I; assay: Topoisomerase I-mediated DNA cleavage assay (calf thymus topoisomerase I); type: biochemical; conditions: for potency as topoisomerase I inhibitor (in words): compared with Hoechst 33342 or with each other; for Topo I-mediated DNA cleavage (REC, Relative Effective Concentration): concentration relative to Hoechst 33342 (arbitrarily 1) producing the same cleavage on plasmid DNA, calf thymus topoisomerase I
Text: DNA topoisomerase I was purified from calf thymus gland as reported previously by B. D. Halligan et al., J. Biol. Chem. 260, 2475 (1985). Plasmid YEpG was also purified by the alkali lysis method followed by phenol deproteination and CsCl/ethidium isopycnic centrifugation as described by T. Mariatis et al., Molecular Cloning, A Laboratory Manual, Cold Spring Harbor Labs, N.Y. (1982) at pages 149-185. The end-labeling of the plasmid was accomplished as previously described by L. F. Liu et al., J. Biol. Chem., 258, 15365 (1983). The cleavage assays were performed as previously reported by A. Y. Chen et al., Cancer Res. 53, 1332 (1993). Human topoisomerase was isolated as a recombinant fusion protein using a T7 expression system.
^b Topoisomerase I cleavage values are reported as REC, Relative
Effective Concentration, i.e. concentrations relative to Hoechst 33342,
whose value is arbitrarily assumed as 1, that are able to produce the sam
cleavage on the plasmid DNA in the presence of calf thymus topoisomerase
I. Cleavage is calculated from the intensity of the strongest Hoechst

tumor cells = assay: Cytotoxicity to tumor cells (cell line not specified); type: cell-based; conditions: for cytotoxicity of 3- and 4-pyridyl versus 2-pyridyl analog (in words): relative to the 2-pyridyl derivative, 14
KBV-1 cells [2] = assay: MTT cytotoxicity assay, multidrug-resistant KBV-1 (overexpresses MDR1); type: cell-based, human; conditions: KB 3-1 versus KB V-1
Procedure: (§1) The cytotoxicity was determined using the as MTT-microtiter plate tetrazolinium cytotoxicity assay (MTA) following the procedures of F. Denizot et al., J. Immunol. […] The cytotoxicity assay was performed using 96-well microtiter plates. Cells were grown in suspension at 37° C. in 5% CO2 and maintained by regular passage in RPMI medium supplemented with 10% heat inactivated fetal bovine serum, L-glutamine (2 mM), penicillin (100 U/ml), and streptomycin (0.1 mg/ml). For determination of IC50, cells were exposed continuously with varying concentrations of drug concentrations and MTT assays were performed at the end of the fourth day.
These cells were grown as monolayer cultures at in 5% CO2 and maintained by regular passage in Dulbecco's minimal essential medium supplemented with 10% heat inactivated fetal bovine serum. KBV-1 cells were similarly maintained except they were grown in the presence of 1 μg/ml vinblastine.

CPT-K5 [3] = assay: MTT cytotoxicity assay, camptothecin-resistant CPT-K5; type: cell-based, human
Procedure: as §1

[4] = test system: human MDR1 (P-glycoprotein); assay: MDR1 (P-glycoprotein) substrate, inferred from KB 3-1 versus KB V-1 cytotoxicity; type: cell-based; conditions: inferred from KB 3-1 / KB V-1 IC50 values
Procedure: The drug sensitive human epidermoid carcinoma KB3-1 cell line (S. Aliyama et al., Somatic Cell Mol. Genet., 11, 117 (1985)) and its vinblastine-selected multidrug-resistant variant KBV-1 cells (D. W. Shen et al., Science, 32, 643 (1986)) were provided by Dr. Michael Gottesmann (National Cancer Institute, Bethesda, Md.). These cells were grown as monolayer cultures at in 5% CO2 and maintained by regular passage in Dulbecco's minimal essential medium supplemented with 10% heat inactivated fetal bovine serum. KBV-1 cells were similarly maintained except they were grown in the presence of 1 μg/ml vinblastine.

topoisomerase I = conditions: Hoechst 33342; cited from earlier work
KBV-1 cells [5] = conditions: as reported by A. Y. Chen et al., Adv. Pharmacol. (1994); cited from earlier work
[6] = cited from earlier work
minor groove of DNA = conditions: literature; cited from earlier work
CPT-K5 [7] = conditions: as reported by A. Y. Chen et al., Cancer Res., 53, 1332 (1993); cited from earlier work

c1cc(-c2ccc3[nH]c(-c4ccc5[nH]c(-c6ccc7[nH]cnc7c6)nc5c4)nc3c2)ccn1 [Compound 16, 5-(4-Pyridyl)-2-[2'-(benzimidazol-5"-yl)benzimidazol-5'-yl]benzimidazole]
potency as topoisomerase I inhibitor (in words) [1]: somewhat more active than the 2-pyridyl derivative, 14 | Topo I-mediated DNA cleavage (REC, Relative Effective Concentration) [1]: 2 | cytotoxicity of 3- and 4-pyridyl versus 2-pyridyl analog (in words) (tumor cells): somewhat more active than the 2-pyridyl derivative, 14

N#Cc1ccc2[nH]c(-c3ccc4[nH]cnc4c3)nc2c1 [Compound 19, 5-Cyano-2-(benzimidazol-5'-yl)benzimidazole]
Topo I-mediated DNA cleavage (REC, Relative Effective Concentration) [1]: 1000

c1ccc(-c2ccc3[nH]c(-c4ccc5[nH]c(-c6ccc7[nH]cnc7c6)nc5c4)nc3c2)cc1 [Compound 13, 5-Phenyl-2-[2'(benzimidazol-5"-yl)benzimidazol-5'-yl]benzimidazole]
IC50 difference between KB 3-1 and KB V-1 cells (in words) (KBV-1 cells [2]): little difference | potency as topoisomerase I inhibitor (in words) [1]: approximately one-half as potent as Hoechst 33342 | Topo I-mediated DNA cleavage (REC, Relative Effective Concentration) [1]: 2 | effect against camptothecin-resistant CPT-K5 cells (in words) (CPT-K5 [3]): effective against camptothecin-resistant CPT-K5 cells | substrate for human MDR1 [4]: appears not to be a substrate for human MDR1

CCCc1ccc2[nH]c(-c3ccc4[nH]c(-c5ccc6[nH]cnc6c5)nc4c3)nc2c1 [Compound 12, 5-Propyl-2-[2'-(benzimidazol-5"-yl)benzimidazol-5'-yl]benzimidazole]
potency as topoisomerase I inhibitor (in words) [1]: much less active than either 10, 11, or 13 | Topo I-mediated DNA cleavage (REC, Relative Effective Concentration) [1]: 100 | cytotoxicity to tumor cells (in words, general) (tumor cells): weak cytotoxicity

c1ccc2[nH]c(-c3ccc4[nH]c(-c5ccc6[nH]cnc6c5)nc4c3)nc2c1 [Compound 10, 2-[2'-(Benzimidazol-5"-yl)benzimidazol-5'-yl]benzimidazole]
Topo I-mediated DNA cleavage (REC, Relative Effective Concentration) [1]: 1.1

c1ccc(-c2ccc3[nH]c(-c4ccc5[nH]c(-c6ccc7[nH]cnc7c6)nc5c4)nc3c2)nc1 [Compound 14, 5-(2-Pyridyl)-2-[2'-(benzimidazol-5"-yl)benzimidazol-5'-yl]benzimidazole]
Topo I-mediated DNA cleavage (REC, Relative Effective Concentration) [1]: 3.3 | antifungal activity (Antifungal activity): exhibits antifungal activity

c1cncc(-c2ccc3[nH]c(-c4ccc5[nH]c(-c6ccc7[nH]cnc7c6)nc5c4)nc3c2)c1 [Compound 15, 5-(3-Pyridyl)-2-[2'-(benzimidazol-5"-yl)benzimidazol-5'-yl]benzimidazole]
potency as topoisomerase I inhibitor (in words) [1]: somewhat more active than the 2-pyridyl derivative, 14 | Topo I-mediated DNA cleavage (REC, Relative Effective Concentration) [1]: 2 | cytotoxicity of 3- and 4-pyridyl versus 2-pyridyl analog (in words) (tumor cells): somewhat more active than the 2-pyridyl derivative, 14

N#Cc1ccc2[nH]c(-c3ccc4[nH]c(-c5ccc6[nH]cnc6c5)nc4c3)nc2c1 [Compound 11, 5-Cyano-2-[2'-(benzimidazol-5"-yl)benzimidazol-5'-yl]benzimidazole]
Topo I-mediated DNA cleavage (REC, Relative Effective Concentration) [1]: 1

CCOc1ccc(-c2nc3cc(-c4nc5cc(N6CCN(C)CC6)ccc5[nH]4)ccc3[nH]2)cc1 [Hoechst 33342, 2'-(4-ethoxyphenyl)-5-(4-methyl-1-piperazinyl)-2,5'-bi-1H-benzimidazole]
topoisomerase I inhibition (literature) (topoisomerase I): inhibitor of topoisomerase I; also recorded: traps the reversible cleavable complex derived from DNA and topoisomerase I | IC50 difference, KB 3-1 as compared to KB V-1 cells (literature) (KBV-1 cells [5]): approximately two-orders of magnitude | protonation at physiological pH [6]: extensively protonated at physiological pH | effect against camptothecin-resistant CPT-K5 cells (in words) (CPT-K5 [3]): effective against camptothecin-resistant CPT-K5 cells | binding to DNA (minor groove of DNA): binds to the minor groove of DNA

CC[C@@]1(O)C(=O)OCc2c1cc1n(c2=O)Cc2cc3ccccc3nc2-1 [camptothecin]
relative resistance of camptothecin (CPT-K5 [7]): 2,500 fold
